Measured values: ChEMBL document CHEMBL5579888, “A Comparative Study on the DNA Interactions and Biological Activities of Benzophenanthridine and Protoberberine Alkaloids” (J Nat Prod, 2024)
Active and inactive are the calls of the source. No cut-off for these calls is given here.

Assays:
dsDNA [1] = experiment: Binding affinity to double stranded DNA AT9 (unknown origin) incubated for 0.5 hrs in presence of different concentration DNA by fluorescence spectra analysis; type: nucleic-acid assay
Quadruplex DNA [2] = experiment: Binding affinity to human G4-quadruplex KRAS DNA 5'- AGGGCGGTGTGGGAAGAGGGAAGAGGGGGAGG-3' at 20 uM by UV-Visible absorption spectroscopic analysis; type: nucleic-acid assay
Quadruplex DNA [3] = experiment: Binding affinity to human G4-quadruplex Bcl2 DNA 5'- CGGGCGCGGGAGGAAGGGGGCGGGAGC-3' assessed as change in fluorescence intensity at 1 uM incubated for 0.5 hrs in presence of different concentrations of DNA by fluorescence spectra analysis; type: nucleic-acid assay
A-375 [4] = experiment: Induction of cell cycle arrest in human A-375 cells assessed assessed as cell accumulation at G2/M phase at 5 uM incubated for 24 hrs by propidium iodide staining based flow cytometry (reference value: 15.70 %); type: functional
dsDNA [5] = experiment: Binding affinity to double stranded DNA AT15-4AT (unknown origin) incubated for 0.5 hrs in presence of different concentration DNA by fluorescence spectra analysis; type: nucleic-acid assay
dsDNA [6] = experiment: Binding affinity to double stranded DNA ssab (unknown origin) assessed as change in fluorescence intensity at 1 uM incubated for 0.5 hrs in presence of different concentrations of DNA by fluorescence spectra analysis; type: nucleic-acid assay
Quadruplex DNA [7] = experiment: Binding affinity to human G4-quadruplex Oxy28 DNA 5'- GGGGTTTTGGGGTTTTGGGGTTTTGGGG -3' assessed as change in fluorescence intensity at 1 uM incubated for 0.5 hrs by fluorescence spectra analysis; type: nucleic-acid assay
dsDNA [8] = experiment: Binding affinity to double stranded DNA AT17 (unknown origin) incubated for 0.5 hrs in presence of different concentration DNA by fluorescence spectra analysis; type: nucleic-acid assay
Quadruplex DNA [9] = experiment: Binding affinity to human G4-quadruplex Pu27 DNA 5'- TGGGGAGGGTGGGGAGGGTGGGGAAGG-3' at 20 uM by UV-Visible absorption spectroscopic analysis; type: nucleic-acid assay
Quadruplex DNA [10] = experiment: Binding affinity to human G4-quadruplex c-kit2 DNA 5'- CGGGCGGGCGCGAGGGAGGGT-3' assessed as change in fluorescence intensity at 1 uM incubated for 0.5 hrs by fluorescence spectra analysis; type: nucleic-acid assay
dsDNA [11] = experiment: Binding affinity to double stranded DNA AT15-6AT (unknown origin) incubated for 0.5 hrs in presence of different concentration DNA by fluorescence spectra analysis; type: nucleic-acid assay
A-375 [12] = experiment: Induction of apoptosis in human A-375 cells assessed assessed as late apoptotic cells at 5 uM incubated for 24 hrs by Annexin V-Elab Fluor 647/propidium iodide staining based flow cytometry (reference value: 6.31 %); type: functional
dsDNA [13] = experiment: Binding affinity to double stranded DNA ssab (unknown origin) assessed as change in fluorescence intensity at 1 uM incubated for 0.5 hrs by fluorescence spectra analysis; type: nucleic-acid assay
Quadruplex DNA [14] = experiment: Displacement of ThT from human G4-quadruplex Bcl2 DNA 5'- CGGGCGCGGGAGGAAGGGGGCGGGAGC-3' incubated for 0.5 hrs by SpectraMax M2 microplate reader analysis; type: nucleic-acid assay
Quadruplex DNA [15] = experiment: Binding affinity to human G4-quadruplex Pu27 DNA 5'- TGGGGAGGGTGGGGAGGGTGGGGAAGG-3' assessed as change in fluorescence intensity at 1 uM incubated for 0.5 hrs by fluorescence spectra analysis; type: nucleic-acid assay
Quadruplex DNA [16] = experiment: Binding affinity to human G4-quadruplex Oxy28 DNA 5'- GGGGTTTTGGGGTTTTGGGGTTTTGGGG -3' assessed as change in fluorescence intensity at 1 uM incubated for 0.5 hrs in presence of different concentrations of DNA by fluorescence spectra analysis; type: nucleic-acid assay
A-375 [17] = experiment: Induction of cell cycle arrest in human A-375 cells assessed assessed as cell accumulation at G0/G1 phase at 5 uM incubated for 24 hrs by propidium iodide staining based flow cytometry (reference value: 54.25 %); type: functional
Quadruplex DNA [18] = experiment: Displacement of ThT from human G4-quadruplex Oxy28 DNA 5'- GGGGTTTTGGGGTTTTGGGGTTTTGGGG -3' incubated for 0.5 hrs by SpectraMax M2 microplate reader analysis; type: nucleic-acid assay
A-375 [19] = experiment: Induction of cell cycle arrest in human A-375 cells assessed assessed as cell accumulation at S phase at 5 uM incubated for 24 hrs by propidium iodide staining based flow cytometry (reference value: 30.05 %); type: functional
Quadruplex DNA [20] = experiment: Binding affinity to human G4-quadruplex 22AG DNA 5'- AGGGTTAGGGTTAGGGTTAGGG -3' assessed as change in fluorescence intensity at 1 uM incubated for 0.5 hrs in presence of different concentrations of DNA by fluorescence spectra analysis; type: nucleic-acid assay
A-375 [21] = experiment: Induction of apoptosis in human A-375 cells assessed assessed as necrotic cells at 5 uM incubated for 24 hrs by Annexin V-Elab Fluor 647/propidium iodide staining based flow cytometry (reference value: 1.45 %); type: functional
Quadruplex DNA [22] = experiment: Binding affinity to human G4-quadruplex VEGF DNA 5'- GGGCGGGCCGGGGGCGGG-3' assessed as change in fluorescence intensity at 1 uM incubated for 0.5 hrs in presence of different concentrations of DNA by fluorescence spectra analysis; type: nucleic-acid assay
A-375 [23] = experiment: Inhibition of DNA synthesis in human A-375 cells at 5 uM incubated for 24 hrs by Edu incorporation based flow cytometry analysis; type: functional, cell-based
Quadruplex DNA [24] = experiment: Binding affinity to human G4-quadruplex KRAS DNA 5'- AGGGCGGTGTGGGAAGAGGGAAGAGGGGGAGG-3' at 10 uM by CD spectra analysis; type: nucleic-acid assay
Quadruplex DNA [25] = experiment: Displacement of ThT from human G4-quadruplex VEGF DNA 5'- GGGCGGGCCGGGGGCGGG-3' incubated for 0.5 hrs by SpectraMax M2 microplate reader analysis; type: nucleic-acid assay
dsDNA [26] = experiment: Binding affinity to double stranded DNA ssab (unknown origin) at 20 uM by UV-Visible absorption spectroscopic analysis; type: nucleic-acid assay
Quadruplex DNA [27] = experiment: Displacement of ThT from human G4-quadruplex c-kit2 DNA 5'- CGGGCGGGCGCGAGGGAGGGT-3' incubated for 0.5 hrs by SpectraMax M2 microplate reader analysis; type: nucleic-acid assay
dsDNA [28] = experiment: Displacement of Hoechst 33342 from double stranded DNA ssab (unknown origin) incubated for 0.5 hrs by SpectraMax M2 microplate reader analysis; type: nucleic-acid assay
Quadruplex DNA [29] = experiment: Binding affinity to human G4-quadruplex 22AG DNA 5'- AGGGTTAGGGTTAGGGTTAGGG -3' assessed as change in fluorescence intensity at 1 uM incubated for 0.5 hrs by fluorescence spectra analysis; type: nucleic-acid assay
A-375 [30] = experiment: Inhibition of RNA synthesis in human A-375 cells at 5 uM incubated for 24 hrs by EU incorporation based flow cytometry analysis; type: functional, cell-based
Quadruplex DNA [31] = experiment: Binding affinity to human G4-quadruplex Oxy28 DNA 5'- GGGGTTTTGGGGTTTTGGGGTTTTGGGG -3' at 20 uM by UV-Visible absorption spectroscopic analysis; type: nucleic-acid assay
Quadruplex DNA [32] = experiment: Displacement of ThT from human G4-quadruplex KRAS DNA 5'- AGGGCGGTGTGGGAAGAGGGAAGAGGGGGAGG-3' incubated for 0.5 hrs by SpectraMax M2 microplate reader analysis; type: nucleic-acid assay

Row | Structure (SMILES) | Activity (Quadruplex DNA [2]) | Kd (Quadruplex DNA [3]) [nM] | Activity (A-375 [4]) [%] | EC50 (dsDNA [5]) [nM] | Activity (dsDNA [6]) | Activity (Quadruplex DNA [7]) | EC50 (dsDNA [8]) [nM] | Activity (Quadruplex DNA [9]) | Activity (Quadruplex DNA [10]) | EC50 (dsDNA [11]) [nM] | Activity (A-375 [12]) [%] | Activity (dsDNA [13]) | Kd (Quadruplex DNA [14]) [nM] | Activity (Quadruplex DNA [15]) | Activity (A-375 [17]) [%] | DC50 (Quadruplex DNA [18]) [nM] | Activity (A-375 [19]) [%] | Activity (A-375 [21]) [%] | inhibition (A-375 [23]) | Activity (Quadruplex DNA [24]) | further results
1 | COc1ccc2cc3[n+](cc2c1OC)CCc1cc2c(cc1-3)OCO2 [BERBERINE] | Active | 2440 | 14.59 | 230 | inactive | Active | 720 | Active | Active | 400 | 7.26 | inactive | 1840 | Active | 56.99 | 3100 | 28.42 | 56.1 | inactive | inactive | Activity (dsDNA [1]): inactive; Kd (Quadruplex DNA [16]): 1670 nM; Kd (Quadruplex DNA [20]): 15600 nM; Kd (Quadruplex DNA [22]): 4960 nM; DC50 (Quadruplex DNA [25]): 580 nM; Activity (dsDNA [26]): inactive; DC50 (Quadruplex DNA [27]): 690 nM; DC50 (dsDNA [28]): 22100 nM; Activity (Quadruplex DNA [29]): Active; inhibition (A-375 [30]): inactive; Activity (Quadruplex DNA [31]): Active; DC50 (Quadruplex DNA [32]): 2640 nM
2 | COc1ccc2c(c[n+](C)c3c4cc5c(cc4ccc23)OCO5)c1OC [CHELERYTHRINE] | Active | 5800 | 30.83 | 1150 | Active | Active | 3890 | Active | Active | 1090 | 35.2 | Active | 860 | Active | 36.15 | 1150 | 33.02 | 6.96 | Active | inactive | Activity (dsDNA [1]): inactive; Activity (Quadruplex DNA [16]): inactive; Activity (Quadruplex DNA [20]): inactive; Activity (Quadruplex DNA [22]): inactive; DC50 (Quadruplex DNA [25]): 410 nM; Activity (dsDNA [26]): Active; DC50 (Quadruplex DNA [27]): 550 nM; DC50 (dsDNA [28]): 3490 nM; Activity (Quadruplex DNA [29]): Active; inhibition (A-375 [30]): Active; Activity (Quadruplex DNA [31]): Active; DC50 (Quadruplex DNA [32]): 850 nM
3 | c1c2c(cc3c1OCO3)-c1cc3ccc4c(c3c[n+]1CC2)OCO4 [COPTISINE] | Active | 1150 | 14.48 | 5570 | inactive | Active | 7780 | Active | Active | 8040 | 15.3 | inactive | 350 | Active | 57.31 | 580 | 28.21 | 84.6 | inactive | inactive | EC50 (dsDNA [1]): 7120 nM; Kd (Quadruplex DNA [16]): 980 nM; Kd (Quadruplex DNA [20]): 5930 nM; Kd (Quadruplex DNA [22]): 3390 nM; DC50 (Quadruplex DNA [25]): 120 nM; Activity (dsDNA [26]): inactive; DC50 (Quadruplex DNA [27]): 170 nM; DC50 (dsDNA [28]): 23000 nM; Activity (Quadruplex DNA [29]): Active; inhibition (A-375 [30]): inactive; Activity (Quadruplex DNA [31]): Active; DC50 (Quadruplex DNA [32]): 380 nM
4 | C[n+]1cc2c3c(ccc2c2ccc4cc5c(cc4c21)OCO5)OCO3 [SANGUINARIUM] | Active | 11000 | 27.86 | 770 | Active | Active | 2330 | Active | Active | 1230 | 49.5 | Active | 440 | Active | 40.85 | 740 | 31.29 | 29.3 | Active | inactive | Activity (dsDNA [1]): inactive; Activity (Quadruplex DNA [16]): inactive; Activity (Quadruplex DNA [20]): inactive; Activity (Quadruplex DNA [22]): inactive; DC50 (Quadruplex DNA [25]): 140 nM; Activity (dsDNA [26]): Active; DC50 (Quadruplex DNA [27]): 250 nM; DC50 (dsDNA [28]): 3210 nM; Activity (Quadruplex DNA [29]): Active; inhibition (A-375 [30]): Active; Activity (Quadruplex DNA [31]): Active; DC50 (Quadruplex DNA [32]): 580 nM
